Drawing on ChEMBL document CHEMBL1131152, “In vitro and in vivo activities of oligodeoxynucleotide-based thrombin inhibitors containing neutral formacetal linkages” (J Med Chem, 1998), this text covers Relative PT for seven compounds.

The experiment deals with Prothrombin (Homo sapiens) (UniProt P00734). The experiment can be described thus: Relative prothrombin time was determined as the activity of the test ODN (oligodeoxynucleotide) relative to that of GS-522.
As to `Cc1cn([C@H]2C[C@H](OCOC[C@H]3O[C@@H](n4cnc5c(=O)nc(N)[nH]c54)C[C@@H]3OP(=O)(O)OC[C@H]3O[C@@H](n4cnc5c(=O)[nH]c(=N)[nH]c54)C[C@@H]3OP(=O)(O)OC[C@H]3O[C@@H](n4cc(C)c(=O)[nH]c4=O)C[C@@H]3OP(=O)(O)OC[C@H]3O[C@@H](n4cnc5c(=O)[nH]c(=N)[nH]c54)C[C@@H]3OP(=O)(O)OC[C@H]3O[C@@H](n4cc(C)c(=O)[nH]c4=O)C[C@@H]3OCOC[C@H]3O[C@@H](n4cnc5c(=O)nc(N)[nH]c54)C[C@@H]3OP(=O)(O)OC[C@H]3O[C@@H](n4cnc5c(=O)[nH]c(=N)[nH]c54)C[C@@H]3OP(=O)(O)OC[C@H]3O[C@@H](n4cc(C)c(=O)[nH]c4=O)C[C@@H]3OP(=O)(O)OC[C@H]3O[C@@H](n4cc(C)c(=O)[nH]c4=O)C[C@@H]3OP(=O)(O)OC[C@H]3O[C@@H](n4cnc5c(=O)[nH]c(=N)[nH]c54)C[C@@H]3OP(=O)(O)OC[C@H]3O[C@@H](n4cnc5c(=O)nc(N)[nH]c54)C[C@@H]3O)[C@@H](COP(=O)(O)O[C@H]3C[C@H](n4cc(C)c(=O)[nH]c4=O)O[C@@H]3COP(=O)(O)O[C@H]3C[C@H](n4cnc5c(=O)[nH]c(=N)[nH]c54)O[C@@H]3COP(=O)(O)O[C@H]3C[C@H](n4cnc5c(=O)[nH]c(=N)[nH]c54)O[C@@H]3COP(=O)(O)O)O2)c(=O)[nH]c1=O`, the Relative PT stood at 0.7.

`Cc1cn([C@H]2C[C@H](OP(=O)(O)OC[C@H]3O[C@@H](n4cnc5c(=O)nc(N)[nH]c54)C[C@@H]3OP(=O)(O)OC[C@H]3O[C@@H](n4cnc5c(=O)[nH]c(=N)[nH]c54)C[C@@H]3OP(=O)(O)OC[C@H]3O[C@@H](n4cc(C)c(=O)[nH]c4=O)C[C@@H]3OP(=O)(O)OC[C@H]3O[C@@H](n4cnc5c(=O)nc(N)[nH]c54)C[C@@H]3OP(=O)(O)OC[C@H]3O[C@@H](n4cc(C)c(=O)[nH]c4=O)C[C@@H]3OP(=O)(O)OC[C@H]3O[C@@H](n4cnc5c(=O)nc(N)[nH]c54)C[C@@H]3OP(=O)(O)OC[C@H]3O[C@@H](n4cnc5c(=O)[nH]c(=N)[nH]c54)C[C@@H]3OP(=O)(O)OC[C@H]3O[C@@H](n4cc(C)c(=O)[nH]c4=O)C[C@@H]3OP(=O)(O)OC[C@H]3O[C@@H](n4cc(C)c(=O)[nH]c4=O)C[C@@H]3OP(=O)(O)OC[C@H]3O[C@@H](n4cnc5c(=O)[nH]c(=N)[nH]c54)C[C@@H]3OCOC[C@H]3O[C@@H](n4cnc5c(=O)nc(N)[nH]c54)C[C@@H]3O)[C@@H](COP(=O)(O)O[C@H]3C[C@H](n4cc(C)c(=O)[nH]c4=O)O[C@@H]3COP(=O)(O)O[C@H]3C[C@H](n4cnc5c(=O)[nH]c(=N)[nH]c54)O[C@@H]3COP(=O)(O)O[C@H]3C[C@H](n4cnc5c(=O)nc(N)[nH]c54)O[C@@H]3COP(=O)(O)O)O2)c(=O)[nH]c1=O`: the Relative PT was 0.8.

With `Cc1cn([C@H]2C[C@H](OP(=O)(O)OC[C@H]3O[C@@H](n4cnc5c(=O)nc(N)[nH]c54)C[C@@H]3OCOC[C@H]3O[C@@H](n4cnc5c(=O)[nH]c(=N)[nH]c54)C[C@@H]3OP(=O)(O)OC[C@H]3O[C@@H](n4cc(C)c(=O)[nH]c4=O)C[C@@H]3OP(=O)(O)OC[C@H]3O[C@@H](n4cnc5c(=O)[nH]c(=N)[nH]c54)C[C@@H]3OP(=O)(O)OC[C@H]3O[C@@H](n4cc(C)c(=O)[nH]c4=O)C[C@@H]3OP(=O)(O)OC[C@H]3O[C@@H](n4cnc5c(=O)nc(N)[nH]c54)C[C@@H]3OP(=O)(O)OC[C@H]3O[C@@H](n4cnc5c(=O)[nH]c(=N)[nH]c54)C[C@@H]3OP(=O)(O)OC[C@H]3O[C@@H](n4cc(C)c(=O)[nH]c4=O)C[C@@H]3OP(=O)(O)OC[C@H]3O[C@@H](n4cc(C)c(=O)[nH]c4=O)C[C@@H]3OP(=O)(O)OC[C@H]3O[C@@H](n4cnc5c(=O)[nH]c(=N)[nH]c54)C[C@@H]3OCOC[C@H]3O[C@@H](n4cnc5c(=O)nc(N)[nH]c54)C[C@@H]3O)[C@@H](COP(=O)(O)O[C@H]3C[C@H](n4cc(C)c(=O)[nH]c4=O)O[C@@H]3COP(=O)(O)O[C@H]3C[C@H](n4cnc5c(=O)nc(N)[nH]c54)O[C@@H]3COP(=O)(O)O[C@H]3C[C@H](n4cnc5c(=O)[nH]c(=N)[nH]c54)O[C@@H]3COP(=O)(O)O)O2)c(=O)[nH]c1=O`, the Relative PT worked out at 0.6.

`Cc1cn([C@H]2C[C@H](OCOC[C@H]3O[C@@H](n4cnc5c(=O)nc(N)[nH]c54)C[C@@H]3OP(=O)(O)OC[C@H]3O[C@@H](n4cnc5c(=O)[nH]c(=N)[nH]c54)C[C@@H]3OP(=O)(O)OC[C@H]3O[C@@H](n4cc(C)c(=O)[nH]c4=O)C[C@@H]3OP(=O)(O)OC[C@H]3O[C@@H](n4cc(C)c(=O)[nH]c4=O)C[C@@H]3OP(=O)(O)OC[C@H]3O[C@@H](n4cnc5c(=O)[nH]c(=N)[nH]c54)C[C@@H]3OP(=O)(O)OC[C@H]3O[C@@H](n4cnc5c(=O)nc(N)[nH]c54)C[C@@H]3O)[C@@H](COP(=O)(O)O[C@H]3C[C@H](n4cnc5c(=O)[nH]c(=N)[nH]c54)O[C@@H]3COP(=O)(O)O[C@H]3C[C@H](n4cc(C)c(=O)[nH]c4=O)O[C@@H]3COP(=O)(O)O[C@H]3C[C@H](n4cnc5c(=O)[nH]c(=N)[nH]c54)O[C@@H]3COP(=O)(O)O[C@H]3C[C@H](n4cnc5c(=O)nc(N)[nH]c54)O[C@@H]3COP(=O)(O)O[C@H]3C[C@H](n4cc(C)c(=O)[nH]c4=O)O[C@@H]3COP(=O)(O)O[C@H]3C[C@H](n4cc(C)c(=O)[nH]c4=O)O[C@@H]3COP(=O)(O)O[C@H]3C[C@H](n4cnc5c(=O)nc(N)[nH]c54)O[C@@H]3COP(=O)(O)O[C@H]3C[C@H](n4cnc5c(=O)nc(N)[nH]c54)O[C@@H]3COP(=O)(O)O)O2)c(=O)[nH]c1=O` yielded a Relative PT of 1.1.

For `Cc1cn([C@H]2C[C@H](OP(=O)(O)OC[C@H]3O[C@@H](n4cc(C)c(=O)[nH]c4=O)C[C@@H]3OP(=O)(O)OC[C@H]3O[C@@H](n4cnc5c(=O)nc(N)[nH]c54)C[C@@H]3OP(=O)(O)OC[C@H]3O[C@@H](n4cnc5c(=O)[nH]c(=N)[nH]c54)C[C@@H]3OP(=O)(O)OC[C@H]3O[C@@H](n4cc(C)c(=O)[nH]c4=O)C[C@@H]3OP(=O)(O)OC[C@H]3O[C@@H](n4cnc5c(=O)[nH]c(=N)[nH]c54)C[C@@H]3OP(=O)(O)OC[C@H]3O[C@@H](n4cc(C)c(=O)[nH]c4=O)C[C@@H]3OP(=O)(O)OC[C@H]3O[C@@H](n4cnc5c(=O)nc(N)[nH]c54)C[C@@H]3OP(=O)(O)OC[C@H]3O[C@@H](n4cnc5c(=O)[nH]c(=N)[nH]c54)C[C@@H]3OP(=O)(O)OC[C@H]3O[C@@H](n4cc(C)c(=O)[nH]c4=O)C[C@@H]3OP(=O)(O)OC[C@H]3O[C@@H](n4cc(C)c(=O)[nH]c4=O)C[C@@H]3OP(=O)(O)OC[C@H]3O[C@@H](n4cnc5c(=O)[nH]c(=N)[nH]c54)C[C@@H]3OP(=O)(O)OC[C@H]3O[C@@H](n4cnc5c(=O)nc(N)[nH]c54)C[C@@H]3O)[C@@H](COCO[C@H]3C[C@H](n4cnc5c(=O)nc(N)[nH]c54)O[C@@H]3COP(=O)(O)O[C@H]3C[C@H](n4cnc5c(=O)nc(N)[nH]c54)O[C@@H]3COP(=O)(O)O)O2)c(=O)[nH]c1=O`, the Relative PT was determined as 0.9.

As for `Cc1cn([C@H]2C[C@H](OCOC[C@H]3O[C@@H](n4cc(C)c(=O)[nH]c4=O)C[C@@H]3OP(=O)(O)OC[C@H]3O[C@@H](n4cnc5c(=O)nc(N)[nH]c54)C[C@@H]3OP(=O)(O)OC[C@H]3O[C@@H](n4cnc5c(=O)[nH]c(=N)[nH]c54)C[C@@H]3OP(=O)(O)OC[C@H]3O[C@@H](n4cc(C)c(=O)[nH]c4=O)C[C@@H]3OCOC[C@H]3O[C@@H](n4cnc5c(=O)[nH]c(=N)[nH]c54)C[C@@H]3OP(=O)(O)OC[C@H]3O[C@@H](n4cc(C)c(=O)[nH]c4=O)C[C@@H]3OP(=O)(O)OC[C@H]3O[C@@H](n4cnc5c(=O)nc(N)[nH]c54)C[C@@H]3OP(=O)(O)OC[C@H]3O[C@@H](n4cnc5c(=O)[nH]c(=N)[nH]c54)C[C@@H]3OP(=O)(O)OC[C@H]3O[C@@H](n4cc(C)c(=O)[nH]c4=O)C[C@@H]3OCOC[C@H]3O[C@@H](n4cc(C)c(=O)[nH]c4=O)C[C@@H]3OP(=O)(O)OC[C@H]3O[C@@H](n4cnc5c(=O)[nH]c(=N)[nH]c54)C[C@@H]3OP(=O)(O)OC[C@H]3O[C@@H](n4cnc5c(=O)nc(N)[nH]c54)C[C@@H]3O)[C@@H](COP(=O)(O)O[C@H]3C[C@H](n4cnc5c(=O)nc(N)[nH]c54)O[C@@H]3COP(=O)(O)O[C@H]3C[C@H](n4cnc5c(=O)[nH]c(=N)[nH]c54)O[C@@H]3COP(=O)(O)O)O2)c(=O)[nH]c1=O`, the Relative PT came to 0.9.

Take `Cc1cn([C@H]2C[C@H](OCOC[C@H]3O[C@@H](n4cnc5c(=O)[nH]c(=N)[nH]c54)C[C@@H]3OP(=O)(O)OC[C@H]3O[C@@H](n4cnc5c(=O)nc(N)[nH]c54)C[C@@H]3O)[C@@H](COP(=O)(O)O[C@H]3C[C@H](n4cc(C)c(=O)[nH]c4=O)O[C@@H]3COP(=O)(O)O[C@H]3C[C@H](n4cnc5c(=O)[nH]c(=N)[nH]c54)O[C@@H]3COP(=O)(O)O[C@H]3C[C@H](n4cnc5c(=O)nc(N)[nH]c54)O[C@@H]3COP(=O)(O)O[C@H]3C[C@H](n4cc(C)c(=O)[nH]c4=O)O[C@@H]3COP(=O)(O)O[C@H]3C[C@H](n4cnc5c(=O)nc(N)[nH]c54)O[C@@H]3COP(=O)(O)O[C@H]3C[C@H](n4cc(C)c(=O)[nH]c4=O)O[C@@H]3COP(=O)(O)O[C@H]3C[C@H](n4cnc5c(=O)[nH]c(=N)[nH]c54)O[C@@H]3COP(=O)(O)O[C@H]3C[C@H](n4cnc5c(=O)nc(N)[nH]c54)O[C@@H]3COP(=O)(O)O[C@H]3C[C@H](n4cc(C)c(=O)[nH]c4=O)O[C@@H]3COCO[C@H]3C[C@H](n4cc(C)c(=O)[nH]c4=O)O[C@@H]3COP(=O)(O)O[C@H]3C[C@H](n4cnc5c(=O)nc(N)[nH]c54)O[C@@H]3COP(=O)(O)O[C@H]3C[C@H](n4cnc5c(=O)nc(N)[nH]c54)O[C@@H]3COP(=O)(O)O)O2)c(=O)[nH]c1=O`: the Relative PT came to 0.6.
